These results are taken from patent publication EP0088849A1, “Levorotatory compounds of N-substituted benzenesulphone amides, process for their preparation and pharmaceutical compositions containing them” (CHOAY S.A., priority 1982, dated 1983).

The test system of the assay is chiens Beagle. The assay is described as follows: Anti-emetic test: apomorphine-induced vomiting in Beagle dogs. The class given is in vivo. The conditions noted are these: for Diminution par rapport au témoin (%): percentage decrease in number of vomitings vs control trial, compound about 1 mg/kg intramuscular at time 0, apomorphine about 100 µg/kg subcutaneous 30 minutes later. The protocol:
L'étude a été effectuée sur des chiens Beagle provenant de l'élevage du Centre de RecherchesBiologiques de Baugy.
On a tout d'abord effectué un essai témoin, puis six jours après, on a testé notamment les quatre composés mentionnés ci-dessus.
Pendant l'essai témoin, les animaux reçoivent 100 µg/kg d'apomorphine, qui provoque des vomissements,
Lorsqu'on teste les produits conformes à l'invention et le racémique du composé n° 1 135, les animaux reçoivent : • - à l'instant 0, une injection intra-musculaire du composé étudié à raison d'environ 1 mg/kg • - 30 minutes plus tard, une injection sous- cutanée d'apomorphine est effectuée, d'environ 100 µg/kg.
Les résultats donnés ci-après correspondent aux pourcentages de diminution du nombre de vomissements par rapport à l'essai témoin.

The structures appear in SMILES notation.

Regarding `CCN1CCCCCC1CNS(=O)(=O)c1cc(Cl)c(N)cc1OC` (racemic) [Composé n° 1 149, amino-4 chloro-5 méthoxy-2 N-(N-éthyl méthyl-2 azépinyl) benzènesulfonamide], the “Diminution par rapport au témoin (%)” value stood at 60%.
Take `CCN1CCCC1CNS(=O)(=O)c1cc(Cl)c(N)cc1OC` (racemic) [racémique du lévo-gyre n° 1 135, reference compound]: the “Diminution par rapport au témoin (%)” value stood at 10%.
In the case of `CCN1CCC[C@H]1CNS(=O)(=O)c1cc(Cl)c(N)cc1OC` [Composé n° 1 135], the “Diminution par rapport au témoin (%)” value was 50%. Besides, the “nombre de vomissements / activité” value (result in words, same test (about 1 mg/kg i.m., apomorphine about 100 µg/kg s.c. 30 min later)) is recorded as “beaucoup plus actif que le racémique correspondant”.
With `CCN1CCC[C@H]1CNS(=O)(=O)c1cc(Cl)c(OC)cc1OC` [Composé n° 1 138], the “Diminution par rapport au témoin (%)” value worked out at 20%.
